Experimental data reported in US10526352B2, “Tricyclic benzoxaborole compounds and uses thereof” (GlaxoSmithKline Intellectual Property (No.2) Limited, priority 2013, dated 2020).
In brackets after ≈: the same amount, converted by molar mass. Like-named read-outs stand apart in the source and are kept apart here.

Key:
[1] = tested on: HepG2 cells
[2] = tested on: E. coli K12; assay: General antimicrobial activity assay (CLSI broth microdilution); format: cell-based, Escherichia coli
Experimental: (§1) Whole-cell antimicrobial activity was determined by broth microdilution using the Clinical and Laboratory Standards Institute (CLSI) recommended procedure, Document M7-A7, “Methods for Dilution Susceptibility Tests for Bacteria that Grow Aerobically”.

[3] = tested on: E. coli K12 tolC::Tn10; assay: as above; format: cell-based, Escherichia coli
Experimental: as §1

[4] = tested on: M. tuberculosis standard strain Mtb H37Rv; assay: MIC determination against mycobacteria (resazurin, Middlebrook 7H9); format: cell-based, Mycobacterium tuberculosis
[5] = tested on: M. tuberculosis clinical isolates; assay: MIC against clinical strains (BACTEC MGIT 960 System); format: cell-based; conditions: Mycobacterium tuberculosis
[6] = tested on: P. aeruginosa PA01; assay: General antimicrobial activity assay (CLSI broth microdilution); format: cell-based, Pseudomonas aeruginosa
Experimental: as §1

[7] = tested on: A. baumannii ATCC 17978; assay: as above; format: cell-based, Acinetobacter baumannii
Experimental: as §1

[8] = target: Mtb LeuRS (Mycobacterium tuberculosis, UniProt P9WFV1); assay: biochemical; parameters: species or system M. tuberculosis
[9] = target: Human cyto LeuRS (Homo sapiens, UniProt Q9P2J5); assay: LeuRS aminoacylation assay, IC50 determination; format: biochemical
[10] = HepG2 Tox50 (A) / Mtb H37Rv MIC (B)
[11] = Mycobacterium tuberculosis, H37RV, read-out: Mtb H37Rv MIC (B)
[12] = hydrochloride; read-out: Mtb H37Rv MIC (B)
[13] = read-out: measured MIC (breakdown), for 1 strain (EXAMPLE 2 and EXAMPLE 4), highest MIC
[14] = read-out: measured MIC (breakdown), for 40 strains (EXAMPLE 2 and EXAMPLE 4)
[15] = strain 137, sensitive clinical isolate
[16] = strain 169, sensitive clinical isolate
[17] = strain 192, sensitive clinical isolate
[18] = strain 199, sensitive clinical isolate
[19] = strain 206, sensitive clinical isolate
[20] = strain 207, sensitive clinical isolate
[21] = strain 208, sensitive clinical isolate
[22] = strain 223, sensitive clinical isolate
[23] = strain 231, sensitive clinical isolate
[24] = strain 237, sensitive clinical isolate
[25] = strain 247, sensitive clinical isolate
[26] = strain 248, sensitive clinical isolate
[27] = strain 249, sensitive clinical isolate
[28] = strain 255, sensitive clinical isolate
[29] = strain 261, sensitive clinical isolate
[30] = strain 265, sensitive clinical isolate
[31] = strain 269, sensitive clinical isolate
[32] = strain 281, sensitive clinical isolate
[33] = strain 292, sensitive clinical isolate
[34] = strain 314, sensitive clinical isolate
[35] = strain 316, sensitive clinical isolate
[36] = strain 317, sensitive clinical isolate
[37] = strain 322, sensitive clinical isolate
[38] = strain 323, sensitive clinical isolate
[39] = strain 324, sensitive clinical isolate
[40] = strain 326, sensitive clinical isolate
[41] = strain 327, sensitive clinical isolate
[42] = strain 328, sensitive clinical isolate
[43] = strain 329, sensitive clinical isolate
[44] = strain 332, sensitive clinical isolate
[45] = strain 333, sensitive clinical isolate
[46] = strain 358, sensitive clinical isolate

Chain of Mtb LeuRS (P9WFV1 whole entry): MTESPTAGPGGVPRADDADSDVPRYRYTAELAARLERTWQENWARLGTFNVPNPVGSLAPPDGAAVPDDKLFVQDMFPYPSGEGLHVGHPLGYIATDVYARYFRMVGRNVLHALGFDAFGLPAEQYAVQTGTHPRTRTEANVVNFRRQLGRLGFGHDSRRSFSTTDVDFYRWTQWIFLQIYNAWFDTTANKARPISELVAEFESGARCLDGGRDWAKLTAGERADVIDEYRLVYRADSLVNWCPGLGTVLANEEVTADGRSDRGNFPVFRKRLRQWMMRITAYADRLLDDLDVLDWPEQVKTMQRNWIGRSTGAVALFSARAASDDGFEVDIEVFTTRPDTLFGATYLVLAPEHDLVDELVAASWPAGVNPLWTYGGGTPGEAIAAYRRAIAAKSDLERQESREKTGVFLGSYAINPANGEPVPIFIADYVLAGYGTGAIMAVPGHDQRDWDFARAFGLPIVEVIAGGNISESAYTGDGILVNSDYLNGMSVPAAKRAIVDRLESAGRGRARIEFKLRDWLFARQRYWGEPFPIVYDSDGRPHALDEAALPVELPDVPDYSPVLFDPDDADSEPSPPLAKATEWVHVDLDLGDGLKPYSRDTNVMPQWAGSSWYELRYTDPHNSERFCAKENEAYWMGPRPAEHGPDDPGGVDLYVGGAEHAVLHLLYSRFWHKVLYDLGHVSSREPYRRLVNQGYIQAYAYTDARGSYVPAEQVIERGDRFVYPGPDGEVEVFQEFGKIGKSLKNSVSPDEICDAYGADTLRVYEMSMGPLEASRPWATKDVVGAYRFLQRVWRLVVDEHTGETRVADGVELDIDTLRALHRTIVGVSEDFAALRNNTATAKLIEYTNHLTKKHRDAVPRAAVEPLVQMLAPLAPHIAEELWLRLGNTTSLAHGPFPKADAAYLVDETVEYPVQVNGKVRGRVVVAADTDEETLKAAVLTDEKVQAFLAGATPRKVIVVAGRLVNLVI
Chain of Human cyto LeuRS (Q9P2J5 whole entry): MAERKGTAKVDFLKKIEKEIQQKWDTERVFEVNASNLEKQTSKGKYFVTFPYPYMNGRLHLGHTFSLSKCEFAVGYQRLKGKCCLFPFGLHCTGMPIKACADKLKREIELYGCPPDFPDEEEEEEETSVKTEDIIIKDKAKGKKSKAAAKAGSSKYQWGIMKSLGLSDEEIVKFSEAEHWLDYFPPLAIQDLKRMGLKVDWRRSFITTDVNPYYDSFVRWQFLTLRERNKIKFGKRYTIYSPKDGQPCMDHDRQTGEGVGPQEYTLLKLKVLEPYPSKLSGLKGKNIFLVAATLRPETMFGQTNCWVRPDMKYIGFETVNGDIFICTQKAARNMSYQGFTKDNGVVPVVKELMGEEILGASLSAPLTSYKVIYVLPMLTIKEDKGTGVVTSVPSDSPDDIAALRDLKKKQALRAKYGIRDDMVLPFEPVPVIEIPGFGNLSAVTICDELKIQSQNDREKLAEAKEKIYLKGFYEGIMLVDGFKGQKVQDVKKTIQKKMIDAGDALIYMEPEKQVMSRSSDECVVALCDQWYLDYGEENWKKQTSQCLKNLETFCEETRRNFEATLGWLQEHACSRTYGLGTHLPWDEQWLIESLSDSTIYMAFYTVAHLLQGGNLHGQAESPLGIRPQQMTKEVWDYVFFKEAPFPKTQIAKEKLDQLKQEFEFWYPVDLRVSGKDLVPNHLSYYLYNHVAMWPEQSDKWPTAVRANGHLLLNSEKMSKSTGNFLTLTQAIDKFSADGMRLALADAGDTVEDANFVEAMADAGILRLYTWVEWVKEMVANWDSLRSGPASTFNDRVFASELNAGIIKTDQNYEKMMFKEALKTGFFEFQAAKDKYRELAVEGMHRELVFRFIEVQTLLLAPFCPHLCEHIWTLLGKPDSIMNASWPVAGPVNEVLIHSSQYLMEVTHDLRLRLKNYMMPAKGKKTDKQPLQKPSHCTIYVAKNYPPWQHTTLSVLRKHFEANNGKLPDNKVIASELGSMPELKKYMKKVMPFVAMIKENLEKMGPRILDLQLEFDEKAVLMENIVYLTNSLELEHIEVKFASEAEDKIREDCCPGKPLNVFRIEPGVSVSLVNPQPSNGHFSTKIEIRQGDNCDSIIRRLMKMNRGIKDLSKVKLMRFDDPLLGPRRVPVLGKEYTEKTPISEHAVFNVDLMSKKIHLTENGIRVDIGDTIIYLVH

Cl.NC[C@H]1OB2OCCOc3ccc(Br)c1c32 [Example 2, (S)-(3-bromo-7,8-dihydro-2H-1,6,9-trioxa-9a-borabenzo[cd]azulen-2-yl)methanamine hydrochloride]
HepG2 cell 48 h Tox50 (A) [1]: 292.4 µM | Selectivity Index (A/B) [1, 10]: 4177 | MIC: E. coli K12 [2]: 64 µg/mL | MIC: E. coli K12 tolC::Tn10 [3]: 64 µg/mL | MIC [4, 11]: < 0.1 µM | MIC [4, 12]: 0.07 µM | MIC ([5]; for all of but 1 of the 40 clinical isolate strains tested): < 1 µM | MIC [5, 13]: 0.16 µM | MIC ([5]; read-out: measured MIC (breakdown), for 1 strain of 40 clinical isolates (EXAMPLE 2)): 0.04 µM | MIC [5, 14]: 0.08 µM | MIC [5, 15]: 0.08 µM | MIC [5, 16]: 0.08 µM | MIC [5, 17]: 0.08 µM | MIC [5, 18]: 0.08 µM | MIC [5, 19]: 0.08 µM | MIC [5, 20]: 0.08 µM | MIC [5, 21]: 0.08 µM | MIC [5, 22]: 0.08 µM | MIC [5, 23]: 0.08 µM | MIC [5, 24]: 0.08 µM | MIC [5, 25]: 0.08 µM | MIC [5, 26]: 0.08 µM | MIC [5, 27]: 0.08 µM | MIC [5, 28]: 0.08 µM | MIC [5, 29]: 0.08 µM | MIC [5, 30]: 0.08 µM | MIC [5, 31]: 0.08 µM | MIC [5, 32]: 0.08 µM | MIC [5, 33]: 0.08 µM | MIC [5, 34]: 0.08 µM | MIC [5, 35]: 0.08 µM | MIC [5, 36]: 0.08 µM | MIC [5, 37]: 0.08 µM | MIC [5, 38]: 0.08 µM | MIC [5, 39]: 0.08 µM | MIC [5, 40]: 0.08 µM | MIC [5, 41]: 0.08 µM | MIC [5, 42]: 0.08 µM | MIC [5, 43]: 0.08 µM | MIC [5, 44]: 0.08 µM | MIC [5, 45]: 0.08 µM | MIC [5, 46]: 0.08 µM | MIC: P. aeruginosa PA01 [6]: 64 µg/mL | MIC: A. baumannii ATCC 17978 [7]: 64 µg/mL

Cl.NC[C@H]1OB2OCCOc3ccc(Cl)c1c32 [Example 4, (S)-(3-chloro-7,8-dihydro-2H-1,6,9-trioxa-9a-borabenzo[cd]azulen-2-yl)methanamine hydrochloride]
HepG2 cell 48 h Tox50 (A) [1]: >1000 µM | MIC: E. coli K12 [2]: 64 µg/mL | MIC: E. coli K12 tolC::Tn10 [3]: 64 µg/mL | MIC [4, 11]: < 0.1 µM | MIC [4, 12]: 0.08 µM | MIC [5, 13]: 0.16 µM | MIC ([5]; read-out: measured MIC (breakdown), for 1 strain of 40 clinical isolates (lowest MIC, EXAMPLE 4)): ≤ 0.2 µM | MIC [5, 14]: 0.08 µM | MIC ([5]; strain 3, sensitive clinical isolate): 0.04 µM | MIC ([5]; strain 52, sensitive clinical isolate): 0.08 µM | MIC [5, 15]: 0.08 µM | MIC ([5]; strain 161, sensitive clinical isolate): 0.31 µM | MIC [5, 16]: 0.08 µM | MIC [5, 17]: 0.08 µM | MIC [5, 18]: 0.08 µM | MIC [5, 19]: 0.08 µM | MIC [5, 20]: 0.08 µM | MIC [5, 21]: 0.08 µM | MIC [5, 22]: 0.08 µM | MIC [5, 23]: 0.08 µM | MIC [5, 24]: 0.08 µM | MIC [5, 25]: 0.08 µM | MIC [5, 26]: 0.08 µM | MIC [5, 27]: 0.08 µM | MIC ([5]; strain 250, sensitive clinical isolate): 0.08 µM | MIC ([5]; strain 253, sensitive clinical isolate): 0.08 µM | MIC [5, 28]: 0.08 µM | MIC ([5]; strain 256, sensitive clinical isolate): 0.08 µM | MIC ([5]; strain 257, sensitive clinical isolate): 0.08 µM | MIC [5, 29]: 0.08 µM | MIC [5, 30]: 0.08 µM | MIC ([5]; strain 267, sensitive clinical isolate): 0.08 µM | MIC [5, 31]: 0.08 µM | MIC ([5]; strain 274, sensitive clinical isolate): 0.16 µM | MIC [5, 32]: 0.08 µM | MIC [5, 33]: 0.08 µM | MIC ([5]; strain 296, sensitive clinical isolate): 0.08 µM | MIC ([5]; strain 311, sensitive clinical isolate): 0.08 µM | MIC [5, 34]: 0.08 µM | MIC [5, 35]: 0.08 µM | MIC [5, 36]: 0.08 µM | MIC [5, 37]: 0.08 µM | MIC [5, 38]: 0.08 µM | MIC [5, 39]: 0.08 µM | MIC ([5]; strain 325, sensitive clinical isolate): 0.16 µM | MIC [5, 40]: 0.08 µM | MIC [5, 41]: 0.08 µM | MIC [5, 42]: 0.08 µM | MIC [5, 43]: 0.08 µM | MIC [5, 44]: 0.08 µM | MIC [5, 45]: 0.08 µM | MIC ([5]; strain 337, sensitive clinical isolate): 0.08 µM | MIC ([5]; strain 356, sensitive clinical isolate): 0.04 µM | MIC ([5]; strain 357, sensitive clinical isolate): 0.04 µM | MIC [5, 46]: 0.08 µM | MIC ([5]; strain 361, sensitive clinical isolate): 0.08 µM | MIC ([5]; strain 362, sensitive clinical isolate): 0.04 µM | MIC ([5]; strain 370, sensitive clinical isolate): 0.04 µM | MIC ([5]; strain 371, sensitive clinical isolate): 0.08 µM | MIC ([5]; strain 374, sensitive clinical isolate): 0.08 µM | MIC ([5]; strain 385, sensitive clinical isolate): 0.08 µM | MIC ([5]; strain 391, sensitive clinical isolate): 0.08 µM | MIC ([5]; strain 424, sensitive clinical isolate): 0.08 µM | MIC ([5]; strain 440, sensitive clinical isolate): 0.08 µM | MIC ([5]; strain 442, sensitive clinical isolate): 0.08 µM | MIC ([5]; strain 457, sensitive clinical isolate): 0.04 µM | MIC ([5]; strain 460, sensitive clinical isolate): 0.08 µM | MIC ([5]; strain 481, sensitive clinical isolate): 0.08 µM | MIC ([5]; strain 705, sensitive clinical isolate): 0.16 µM | MIC ([5]; strain 716, sensitive clinical isolate): 0.08 µM | MIC ([5]; strain 729, sensitive clinical isolate): 0.08 µM | MIC ([5]; strain 730, sensitive clinical isolate): 0.08 µM | MIC ([5]; strain 731, sensitive clinical isolate): 0.08 µM | MIC ([5]; strain 733, sensitive clinical isolate): 0.08 µM | MIC ([5]; strain 734, sensitive clinical isolate): 0.08 µM | MIC ([5]; strain 736, sensitive clinical isolate): 0.08 µM | MIC ([5]; strain 737, sensitive clinical isolate): 0.08 µM | MIC: P. aeruginosa PA01 [6]: 64 µg/mL | MIC: A. baumannii ATCC 17978 [7]: 64 µg/mL | IC50 [8]: 148 nM

C[C@]1(CO)COc2ccc(Br)c3c2B(OC3CN)O1 (stereo partly drawn) [Example 17, ((2S, 8S, or 2R, 8R)-2-(aminomethyl)-3-bromo-8-methyl-7,8-dihydro-2H-1,6,9-trioxa-9a-borabenzo[cd]azulen-8-yl)methanol]
Selectivity Index (A/B) [1, 10]: >50 | HepG2 cell 48 h Tox50 (A) ([1]; human): >50 µM | MIC [4, 11]: 0.925 µM (≈ 0.303 µg/mL) | IC50 [8]: 1970 nM

CCOc1ccc(Br)c2c1B(O)O[C@@H]2CN [Example C4-Br, reference compound]
Selectivity Index (A/B) [1]: 320 | HepG2 cell 48 h Tox50 (A) [1]: 32 µM | IC50 [9]: 67000 nM | MIC: E. coli K12 [2]: 64 µg/mL (≈ 224 µM) | MIC: E. coli K12 tolC::Tn10 [3]: 64 µg/mL (≈ 224 µM) | MIC ([4]; Mycobacterium tuberculosis, H37RV; read-out: Mtb H37Rv MIC (B)): 0.1 µM (≈ 0.0286 µg/mL) | MIC: P. aeruginosa PA01 [6]: 64 µg/mL (≈ 224 µM) | MIC: A. baumannii ATCC 17978 [7]: 64 µg/mL (≈ 224 µM)

CC1(C)COc2c(Cl)ccc3c2B(O[C@@H]3CN)O1 [Example C13-Cl, reference compound]
Selectivity Index (A/B) [1, 10]: >10 | HepG2 cell 48 h Tox50 (A) ([1]; human): >50 µM | MIC [4, 11]: 5 µM (≈ 1.34 µg/mL) | IC50 [8]: 2160 nM
